One series deals with Trypanosoma cruzi. Kind of series: Antitrypanosomal activity against trypomastigote form of Trypanosoma cruzi Tulahuen expressing beta-galactosidase infected in mouse NIH/3T3 cells assessed as inhibition of parasite replication after 4 days by betagalactosidase-based luminescence assay. It counts as functional, organism-based. Conditions: NIH3T3, 96 h.
Series [1] has as its system NIH3T3. Kind of series: Cytotoxicity against mouse NIH/3T3 cells. It counts as cell-based. As to conditions: for IC50: Mus musculus, NIH3T3; for Activity: mouse, nih3t3.
The nature of series [2]: Selectivity ratio of IC50 for mouse NIH/3T3 cells to IC50 for trypomastigote form of Trypanosoma cruzi Tulahuen. In kind it is ADME, cell-based. As to conditions: read-out: Ratio IC50.
A short description of series [3]: Solubility of compound in phosphate buffered saline buffer. It counts as physicochemical.
Series [4] relates to NIH3T3. Kind of series: Cytotoxicity against mouse NIH/3T3 cells up to 19.5 uM. In kind it is cell-based.
A short description of series [5]: Chemical stability of the compound in phosphate buffered saline assessed as compound remaining after 48 hrs. In kind it is physicochemical. As to conditions: read-out: Stability.

With `CCN(CC)C(=O)C1CCCN(Cc2cccc(Cl)c2)C1` (centres undefined), the IC50 in the series with Trypanosoma cruzi stood at 9.91 µM; in the series on NIH3T3 [1], 164 µM. In addition, the selectivity ratio in series [2] is 16.6. In series [3], this compound yielded a solubility greater than 100 µM.
With `COc1ccc(CCN(C)C(=O)C2CCCN(Cc3ccc(OC)c(OC)c3)C2)cc1OC` (centres undefined), in the series with Trypanosoma cruzi, the half-maximal inhibitory concentration (IC50) came out at 0.109 µM. The Activity entry in the series with NIH3T3 [1] and in the series with NIH3T3 [4] was “Non-toxic” throughout. Further, in series [3], the solubility is greater than 500 µM. Moreover, the remaining at 48 h in series [5] was 84%.
Turning to `CCn1ncc(CN2CCCC(C(=O)c3cccc(OC(C)C)c3)C2)c1C` (centres undefined), the IC50 in the series with Trypanosoma cruzi stood at 0.056 µM. In the series on NIH3T3 [1], the Activity entry is “Non-toxic”. For the same compound, the solubility in series [3] is greater than 200 µM.
With `Cc1cc(C)n(CC(=O)N2CCCC(C(=O)c3cccc(OC(C)C)c3)C2)n1` (centres undefined), the IC50 in the series with Trypanosoma cruzi turned out to be 16.5 µM. In series [3], this compound returned a solubility greater than 200 µM.
As for `CC(C)Oc1cccc(C(=O)C2CCCN(Cc3cnn(C(C)C)c3)C2)c1` (centres undefined), in the series on Trypanosoma cruzi, the IC50 worked out at 0.054 µM. The Activity entry in the series with NIH3T3 [1] is “Non-toxic”. Further, the solubility in series [3] is greater than 200 µM.
In the case of `COc1ccc(CN2CCCC(C(=O)N3CCc4ccccc4C3)C2)cc1OC` (centres undefined), the IC50 amounted to 3.54 µM in the series on Trypanosoma cruzi and 41.7 µM in the series on NIH3T3 [1]. Also, the selectivity ratio in series [2] amounted to 11.8. This compound also displayed a solubility in series [3] greater than 100 µM.
On the same counts, the results for `CN(Cc1ccccc1)C(=O)C1CCCN(Cc2cccc(Cl)c2)C1` (centres undefined) are 0.57 µM, 70.3 µM, 123 and greater than 100 µM.
In the case of `CCCn1ncc(CN2CCCC(C(=O)c3cccc(OC(C)C)c3)C2)c1C` (centres undefined), the IC50 in the series with Trypanosoma cruzi came to 0.035 µM. Further, the Activity result with NIH3T3 [1] and in the series on NIH3T3 [4] was “Non-toxic” throughout. The compound further yielded a solubility in series [3] greater than 500 µM.
On to `COc1ccccc1CN1CCCC(C(=O)N(C)Cc2ccccc2)C1` (centres undefined), for which the 50% inhibitory concentration (IC50) with Trypanosoma cruzi is 10.8 µM; with NIH3T3 [1], 77.3 µM. The selectivity ratio in series [2] stood at 7.16. Also, the solubility in series [3] is greater than 100 µM.
Consider `COc1cc2c(cc1OC)CN(C(=O)C1CCCN(Cc3ccccc3)C1)CC2` (centres undefined), for which the IC50 stood at 0.763 µM in the series with Trypanosoma cruzi and 52.7 µM with NIH3T3 [1]. Moreover, in series [2], the selectivity ratio was determined as 69.1. Further, in series [3], the solubility was greater than 100 µM.
For `COc1ccc(CCN(C)C(=O)C2CCCN(Cc3ccccc3)C2)cc1OC` (centres undefined), in that order: 1.4 µM, 47 µM, 33.6 and greater than 100 µM.
On the same counts, the results for `CN(Cc1ccccc1)C(=O)C1CCCN(Cc2ccccc2C(F)(F)F)C1` (centres undefined) are 15.9 µM, 63.3 µM, 3.98 and greater than 100 µM.
On the same counts, the results for `COc1ccc(CCN(C)C(=O)C2CCCN(Cc3ccc(F)cc3)C2)cc1OC` (centres undefined) are 4.33 µM, 64.7 µM, 14.9 and greater than 100 µM.
As to `COc1ccc(CN2CCCC(C(=O)N3CCCC3)C2)c(OC)c1OC` (centres undefined), the IC50 in the series with Trypanosoma cruzi turned out to be 1.01 µM. In addition, the Activity entry in the series on NIH3T3 [1] is recorded as “Non-toxic”. Besides, the solubility in series [3] was greater than 100 µM.
Regarding `CN(Cc1ccccc1)C(=O)C1CCCN(Cc2ccc(C(F)(F)F)cc2)C1` (centres undefined), the IC50 with Trypanosoma cruzi is 0.008 µM; with NIH3T3 [1], 61.6 µM. In series [2], the selectivity ratio is greater than 1000. Moreover, the solubility in series [3] is greater than 100 µM.
On the same counts, the results for `CN(Cc1ccccc1)C(=O)C1CCCN(Cc2ccc([N+](=O)[O-])cc2)C1` (centres undefined) are 7.63 µM, 51 µM, 6.68 and greater than 100 µM.
For the compound `CN(Cc1ccccc1)C(=O)C1CCCN(Cc2ccc(Br)cc2)C1` (centres undefined), the IC50 in the series on Trypanosoma cruzi is 3.01 µM; with NIH3T3 [1] it was 74.3 µM. Also, in series [2], the selectivity ratio came out at 24.6. The compound also had a solubility in series [3] greater than 100 µM.
As for `Cn1cc(CN2CCCC(C(=O)c3ccc(C(C)(C)C)cc3)C2)cn1` (centres undefined), the IC50 in the series with Trypanosoma cruzi is 1.63 µM. The compound further gave a solubility in series [3] greater than 200 µM.
`COc1ccc(C(=O)C2CCCN(CC3CCCCC3)C2)cc1OC` (centres undefined): the IC50 in the series on Trypanosoma cruzi came out at 1.57 µM. Also, the solubility in series [3] is greater than 200 µM.
For the compound `COc1ccc(C(=O)C2CCCN(CCc3ccccc3)C2)cc1OC` (centres undefined), the IC50 amounted to 0.518 µM with Trypanosoma cruzi and 19.5 µM in the series on NIH3T3 [1]. Further, the selectivity ratio in series [2] was 37.7. Moreover, in series [3], the solubility is greater than 200 µM.
For `CCCn1cc(CN2CCCC(C(=O)c3cccc(C(F)(F)F)c3)C2)cn1` (centres undefined), the IC50 with Trypanosoma cruzi is 0.25 µM. The solubility in series [3] is greater than 200 µM.

For the origin of these results see ChEMBL document CHEMBL1921698, “Identification of small-molecule inhibitors of Trypansoma cruzi replication” (Bioorg Med Chem Lett, 2011).
